Active and inactive are the calls of the source. The rule behind the calls is not given here.
Tests used:
U-251 = experiment: Antiproliferative activity against human U-251 cells assessed as reduction in cell viability incubated for 24 hrs by CCK-8 assay; type: functional, cell-based; conditions: U-251, 24 h
[1] = Antiproliferative activity against human […] cells assessed as reduction in cell viability incubated for 24 hrs by CCK-8 assay; type: functional, cell-based
HONE1 cell line = experiment: Antiproliferative activity against human HONE1 cell line assessed as reduction in cell viability incubated for 24 hrs by CCK-8 assay; type: functional, cell-based; conditions: HONE1, 24 h
A549 [2] = experiment: Antiproliferative activity against human A549 cells assessed as reduction in cell viability incubated for 24 hrs by CCK-8 assay; type: functional, cell-based; conditions: A549, 24 h
[3] = Antiproliferative activity against human NCI-H1688 cells assessed as reduction in cell viability incubated for 24 hrs by CCK-8 assay; type: functional, cell-based; conditions: NCI-H1688, 24 h
NCI-H1650 [4] = experiment: Antiproliferative activity against human NCI-H1650 cells assessed as reduction in cell viability incubated for 24 hrs by CCK-8 assay; type: functional, cell-based; conditions: NCI-H1650, 24 h
NCI-H1299 = experiment: Antiproliferative activity against human NCI-H1299 cells assessed as reduction in cell viability incubated for 24 hrs by CCK-8 assay; type: functional, cell-based; conditions: NCI-H1299, 24 h
NCI-H460 [5] = experiment: Antiproliferative activity against human NCI-H460 cells assessed as reduction in cell viability incubated for 24 hrs by CCK-8 assay; type: functional, cell-based; conditions: NCI-H460, 24 h
HepG2 = experiment: Antiproliferative activity against human HepG2 cells assessed as reduction in cell viability incubated for 24 hrs by CCK-8 assay; type: functional, cell-based; conditions: HepG2, 24 h
MCF7 = experiment: Antiproliferative activity against human MCF7 cells assessed as reduction in cell viability incubated for 24 hrs by CCK-8 assay; type: functional, cell-based; conditions: MCF7, 24 h
MDA-MB-231 [6] = experiment: Antiproliferative activity against human MDA-MB-231 cells assessed as reduction in cell viability incubated for 24 hrs by CCK-8 assay; type: functional, cell-based; conditions: MDA-MB-231, 24 h
AGS [7] = experiment: Antiproliferative activity against human AGS cells assessed as reduction in cell viability incubated for 24 hrs by CCK-8 assay; type: functional, cell-based
SGC-7901 = experiment: Antiproliferative activity against human SGC-7901 cells assessed as reduction in cell viability incubated for 24 hrs by CCK-8 assay; type: functional, cell-based; conditions: SGC-7901, 24 h
LoVo [8] = experiment: Antiproliferative activity against human LoVo cells assessed as reduction in cell viability incubated for 24 hrs by CCK-8 assay; type: functional, cell-based
SW480 [9] = experiment: Antiproliferative activity against human SW480 cells assessed as reduction in cell viability incubated for 24 hrs by CCK-8 assay; type: functional, cell-based; conditions: SW480, 24 h
OVCAR-3 [10] = experiment: Antiproliferative activity against human OVCAR-3 cells assessed as reduction in cell viability incubated for 24 hrs by CCK-8 assay; type: functional, cell-based; conditions: OVCAR-3, 24 h
NCI-H460 [11] = experiment: Cytotoxicity against human NCI-H460 cells assessed as reduction in cell viability at 10 uM incubated for 8 hr by CCK-8 assay; type: functional, cell-based
L02 = experiment: Cytotoxicity against human L02 cells assessed as reduction in cell viability incubated for 8 hrs by CCK-8 assay; type: toxicity, cell-based; conditions: l02, 8 h
A549 [12] = experiment: Inhibition of colony formation in human A549 cells incubated for 48 hrs by Giemsa staining based microscopy; type: functional, cell-based
NCI-H460 [13] = experiment: Inhibition of colony formation in human NCI-H460 cells incubated for 48 hrs by Giemsa staining based microscopy; type: functional, cell-based
NCI-H1650 [14] = experiment: Inhibition of colony formation in human NCI-H1650 cells incubated for 48 hrs by Giemsa staining based microscopy; type: functional, cell-based
AGS [15] = experiment: Inhibition of colony formation in human AGS cells incubated for 48 hrs by Giemsa staining based microscopy; type: functional, cell-based
LoVo [16] = experiment: Inhibition of colony formation in human LoVo cells incubated for 48 hrs by Giemsa staining based microscopy; type: functional, cell-based
SW480 [17] = experiment: Inhibition of colony formation in human SW480 cells incubated for 48 hrs by Giemsa staining based microscopy; type: functional, cell-based
OVCAR-3 [18] = experiment: Inhibition of colony formation in human OVCAR-3 cells incubated for 48 hrs by Giemsa staining based microscopy; type: functional, cell-based
MDA-MB-231 [19] = experiment: Antitumor activity against human MDA-MB-231 cells xenografted in BALB/c mouse assessed as reduction in tumor growth at 20 mg/kg,ip measured after 28 days; type: functional, organism-based; conditions: time 28.0 day
A549 [20] = experiment: Antitumor activity against human A549 cells xenografted in BALB/c mouse assessed as reduction in tumor growth at 20 mg/kg,ip measured after 28 days; type: functional, organism-based; conditions: time 28.0 day
OVCAR-3 [21] = experiment: Antitumor activity against human OVCAR-3 cells xenografted in BALB/c mouse assessed as reduction in tumor growth at 20 mg/kg,ip measured after 28 days; type: functional, organism-based; conditions: time 28.0 day
MDA-MB-231 [22] = experiment: Antitumor activity against human MDA-MB-231 cells xenografted in BALB/c mouse assessed as tumor necrosis at 20 mg/kg,ip measured after 28 days; type: functional, organism-based; conditions: time 28.0 day
[23] = Toxicity in BALB/c mouse xenografted with human MDA-MB-231 cells assessed as liver pathological change at 20 mg/kg,ip measured after 28 days; type: organism-based; conditions: in vivo, 672 h, time 28 day
[24] = Toxicity in BALB/c mouse xenografted with human MDA-MB-231 cells assessed as kidney pathological change at 20 mg/kg,ip measured after 28 days; type: organism-based; conditions: in vivo, 672 h, time 28 day
A549 [25] = experiment: Induction of apoptosis in human A549 cells assessed as viable cells at 10 uM incubated for 24 hrs by annexin V-FITC/propidium iodide staining based flow cytometry analysis (reference value: 95.2%); type: functional; conditions: read-out: Activity
A549 [26] = experiment: Induction of apoptosis in human A549 cells assessed as early apoptotic cells at 10 uM incubated for 24 hrs by annexin V-FITC/propidium iodide staining based flow cytometry analysis (reference value: 3.6%); type: functional

Compound: C=CCc1ccc(O)c(-c2cc(CC=C)ccc2OCC[S+]([O-])CCCCN=C=S)c1 (stereo not drawn)
- IC50 (U-251): 7.75 µM
- IC50 [1]: 9.56 µM
- IC50 (HONE1 cell line): 14.1 µM
- IC50 (A549 [2]): 9.07 µM
- IC50 [3]: 12.8 µM
- IC50 (NCI-H1650 [4]): 6.92 µM
- IC50 (NCI-H1299): 9.17 µM
- IC50 (NCI-H460 [5]): 6.15 µM
- IC50 (HepG2): 6.24 µM
- IC50 (MCF7): 12.7 µM
- IC50 (MDA-MB-231 [6]): 7.48 µM
- IC50 (AGS [7]): 8.02 µM
- IC50 (SGC-7901): 11.5 µM
- IC50 (LoVo [8]): 5.1 µM
- IC50 (SW480 [9]): 6.07 µM
- IC50 (OVCAR-3 [10]): 5.34 µM
- Activity (NCI-H460 [11]): Active
- Activity (L02): Non-Toxic
- inhibition (A549 [12]): Active
- inhibition (NCI-H460 [13]): Active
- inhibition (NCI-H1650 [14]): Active
- inhibition (AGS [15]): Active
- inhibition (LoVo [16]): Active
- inhibition (SW480 [17]): Active
- inhibition (OVCAR-3 [18]): Active
- Activity (MDA-MB-231 [19]): Active
- Activity (A549 [20]): Active
- Activity (OVCAR-3 [21]): Active
- Activity (MDA-MB-231 [22]): Active
- Activity [23]: Non-Toxic
- Activity [24]: Non-Toxic
- viability at 10 µM (A549 [25]): 50.1%
- Activity (A549 [26]): 13.9%
